Test results from PMC5218480 (PLoS ONE, 2017).

Tested on: MV-4-11 cells
Assay: Gene expression microarray analysis (Affymetrix PrimeView) and GSEA
Assay type: cell-based, human
Parameters: RFU PODN (11730768_x_at) / Fold change /veh PODN (11730768_x_at) / RFU LINC00158 (11744669_a_at) / Fold change /veh LINC00158 (11744669_a_at) / RFU DUSP10 (11751237_a_at) / Fold change /veh DUSP10 (11751237_a_at) / RFU ID3 (11757404_x_at) / Fold change /veh ID3 (11757404_x_at) / RFU PLEKHG5 (11737974_s_at) / Fold change /veh PLEKHG5 (11737974_s_at) / RFU LRRC4B (11730491_at) / Fold change /veh LRRC4B (11730491_at) / RFU GIMAP4 (11747438_a_at) / Fold change /veh GIMAP4 (11747438_a_at) / RFU KRT8 (11758183_x_at) / Fold change /veh KRT8 (11758183_x_at) / RFU CNN1 (11734310_a_at) / Fold change /veh CNN1 (11734310_a_at) / RFU VPS37D (11726825_at) / Fold change /veh VPS37D (11726825_at) / RFU C10orf10 (11716522_x_at) / Fold change /veh C10orf10 (11716522_x_at) / RFU KIR2DL2 /// KIR2DL4 /// KIR2DL5A /// KIR2DL5B /// KIR2DS1 /// KIR2DS2 /// KIR2DS3 /// KIR2DS4 /// KIR3DL3 /// KIR3DL3 /// KIR3DS1 (11738374_at) / Fold change /veh KIR2DL2 /// KIR2DL4 /// KIR2DL5A /// KIR2DL5B /// KIR2DS1 /// KIR2DS2 /// KIR2DS3 /// KIR2DS4 /// KIR3DL3 /// KIR3DL3 /// KIR3DS1 (11738374_at) / RFU C1QL1 (11718748_at) / Fold change /veh C1QL1 (11718748_at) / RFU TMPRSS4 (11747572_a_at) / Fold change /veh TMPRSS4 (11747572_a_at) / RFU HAMP (11756126_x_at) / Fold change /veh HAMP (11756126_x_at) / RFU RNFT2 (11725882_a_at) / Fold change /veh RNFT2 (11725882_a_at) / RFU NR4A2 (11747474_a_at) / Fold change /veh NR4A2 (11747474_a_at) / RFU ABCC12 (11746883_a_at) / Fold change /veh ABCC12 (11746883_a_at) / RFU TMEM136 (11760407_x_at) / Fold change /veh TMEM136 (11760407_x_at) / RFU CLDN22 /// WWC2 (11732394_at) / Fold change /veh CLDN22 /// WWC2 (11732394_at) / RFU HLA-DPB1 (11760878_x_at) / Fold change /veh HLA-DPB1 (11760878_x_at) / RFU SPINT1 (11716480_a_at) / Fold change /veh SPINT1 (11716480_a_at) / RFU GAP43 (11754022_s_at) / Fold change /veh GAP43 (11754022_s_at) / RFU A4GNT (11735810_at) / Fold change /veh A4GNT (11735810_at) / RFU PRB3 (11715151_x_at) / Fold change /veh PRB3 (11715151_x_at) / RFU TUBB4B (11761932_at) / Fold change /veh TUBB4B (11761932_at) / RFU CAPN14 (11732068_a_at) / Fold change /veh CAPN14 (11732068_a_at) / RFU TMCC2 (11721928_a_at) / Fold change /veh TMCC2 (11721928_a_at) / RFU IRGQ (11745062_a_at) / Fold change /veh IRGQ (11745062_a_at) / RFU FAM174B (11720279_a_at) / Fold change /veh FAM174B (11720279_a_at) / RFU TMPRSS4 (11748680_a_at) / Fold change /veh TMPRSS4 (11748680_a_at) / RFU FAM212B (11763350_a_at) / Fold change /veh FAM212B (11763350_a_at) / RFU PLEKHG5 (11743358_a_at) / Fold change /veh PLEKHG5 (11743358_a_at) / RFU ZSCAN30 (11745921_a_at) / Fold change /veh ZSCAN30 (11745921_a_at) / RFU CMKLR1 (11741424_a_at) / Fold change /veh CMKLR1 (11741424_a_at) / RFU LOC101060620 /// MAPK8IP1 (11723275_at) / Fold change /veh LOC101060620 /// MAPK8IP1 (11723275_at) / RFU SPTSSB (11747773_x_at) / Fold change /veh SPTSSB (11747773_x_at) / RFU PRSS12 (11739890_at) / Fold change /veh PRSS12 (11739890_at) / RFU BIN1 (11741810_x_at) / Fold change /veh BIN1 (11741810_x_at) / RFU WNT11 (11732464_a_at) / Fold change /veh WNT11 (11732464_a_at) / RFU C10orf10 (11716521_a_at) / Fold change /veh C10orf10 (11716521_a_at) / RFU C5orf56 (11738089_at) / Fold change /veh C5orf56 (11738089_at) / RFU CYB561 (11721691_x_at) / Fold change /veh CYB561 (11721691_x_at) / RFU ANKRD19P (11752326_a_at) / Fold change /veh ANKRD19P (11752326_a_at) / RFU OR2T12 /// OR2T33 /// OR2T8 (11738714_s_at) / Fold change /veh OR2T12 /// OR2T33 /// OR2T8 (11738714_s_at) / RFU VCAN (11748164_a_at) / Fold change /veh VCAN (11748164_a_at) / RFU JSRP1 (11732532_at) / Fold change /veh JSRP1 (11732532_at) / RFU KRTAP10-11 (11738290_x_at) / Fold change /veh KRTAP10-11 (11738290_x_at) / RFU MYO3A (11730013_a_at) / Fold change /veh MYO3A (11730013_a_at) / RFU EBF3 (11725865_a_at) / Fold change /veh EBF3 (11725865_a_at) / RFU CAMK2N1 (11719241_x_at) / Fold change /veh CAMK2N1 (11719241_x_at) / RFU C5orf56 (11738088_a_at) / Fold change /veh C5orf56 (11738088_a_at) / RFU OLFML3 (11715873_a_at) / Fold change /veh OLFML3 (11715873_a_at) / RFU LOC100653217 /// NTM (11731650_a_at) / Fold change /veh LOC100653217 /// NTM (11731650_a_at) / RFU MAPK11 (11762145_a_at) / Fold change /veh MAPK11 (11762145_a_at) / RFU FIZ1 (11724087_x_at) / Fold change /veh FIZ1 (11724087_x_at) / RFU OASL (11726364_x_at) / Fold change /veh OASL (11726364_x_at) / RFU SOX15 (11748057_x_at) / Fold change /veh SOX15 (11748057_x_at) / RFU CD79A (11719716_a_at) / Fold change /veh CD79A (11719716_a_at) / RFU HIST1H1D (11736915_at) / Fold change /veh HIST1H1D (11736915_at) / RFU CASKIN2 (11723855_a_at) / Fold change /veh CASKIN2 (11723855_a_at) / RFU LOC730098 (11760151_x_at) / Fold change /veh LOC730098 (11760151_x_at) / RFU OR4N2 (11742367_at) / Fold change /veh OR4N2 (11742367_at) / RFU PRRT2 (11749266_a_at) / Fold change /veh PRRT2 (11749266_a_at) / RFU SNX32 (11753110_a_at) / Fold change /veh SNX32 (11753110_a_at) / RFU CDHR5 (11726645_a_at) / Fold change /veh CDHR5 (11726645_a_at) / RFU RCAN1 (11760418_a_at) / Fold change /veh RCAN1 (11760418_a_at) / RFU FAM167A (11723789_a_at) / Fold change /veh FAM167A (11723789_a_at) / RFU FAM26E (11764081_at) / Fold change /veh FAM26E (11764081_at) / RFU ISYNA1 (11749810_s_at) / Fold change /veh ISYNA1 (11749810_s_at) / RFU ACY1 (11761880_at) / Fold change /veh ACY1 (11761880_at) / RFU 11764098_at / Fold change /veh 11764098_at / RFU SAMD14 (11745864_x_at) / Fold change /veh SAMD14 (11745864_x_at) / RFU NPB (11741838_a_at) / Fold change /veh NPB (11741838_a_at) / RFU TMPRSS6 (11731388_a_at) / Fold change /veh TMPRSS6 (11731388_a_at) / RFU KRTAP10-2 (11738614_at) / Fold change /veh KRTAP10-2 (11738614_at) / RFU ARHGAP8 /// PRR5-ARHGAP8 (11727945_x_at) / Fold change /veh ARHGAP8 /// PRR5-ARHGAP8 (11727945_x_at) / RFU KRTAP5-7 /// NADSYN1 (11734609_at) / Fold change /veh KRTAP5-7 /// NADSYN1 (11734609_at) / RFU RASL12 (11751679_a_at) / Fold change /veh RASL12 (11751679_a_at) / RFU CDKN2B (11736163_a_at) / Fold change /veh CDKN2B (11736163_a_at) / RFU PRF1 (11729649_at) / Fold change /veh PRF1 (11729649_at) / RFU, ZNF638 /// ZNF638-IT1 / Fold change vs veh, ZNF638 /// ZNF638-IT1 / RFU, PANK3 / Fold change vs veh, PANK3 / RFU, SH3YL1 / Fold change vs veh, SH3YL1 / RFU, ZEB2 / Fold change vs veh, ZEB2 / RFU, NRIP1 / Fold change vs veh, NRIP1 / RFU, PTTG1IP / Fold change vs veh, PTTG1IP / RFU, CAPN2 / Fold change vs veh, CAPN2 / RFU, MED14 / Fold change vs veh, MED14 / RFU, SNORA58 / Fold change vs veh, SNORA58 / RFU, C1orf63 / Fold change vs veh, C1orf63 / RFU, LRRFIP1 / Fold change vs veh, LRRFIP1 / RFU, NDUFAF7 / Fold change vs veh, NDUFAF7 / RFU, SLC12A2 / Fold change vs veh, SLC12A2 / RFU, IBTK / Fold change vs veh, IBTK / RFU, ESF1 / Fold change vs veh, ESF1 / Fold change vs veh, TMEM50B / RFU, TAOK1 / Fold change vs veh, TAOK1 / RFU, ACBD3 / Fold change vs veh, ACBD3 / RFU, TMA16 / Fold change vs veh, TMA16 / RFU, RWDD3 / Fold change vs veh, RWDD3 / RFU, BCAT1 / Fold change vs veh, BCAT1 / RFU, EDEM3 / Fold change vs veh, EDEM3 / RFU, TMEM33 / Fold change vs veh, TMEM33 / RFU, WDR75 / Fold change vs veh, WDR75 / RFU, AHCTF1 / Fold change vs veh, AHCTF1 / RFU, TFRC / Fold change vs veh, TFRC / RFU, ZDHHC17 / Fold change vs veh, ZDHHC17 / RFU, NOM1 / Fold change vs veh, NOM1 / RFU, ARL8B / Fold change vs veh, ARL8B / RFU, ZBTB11 / Fold change vs veh, ZBTB11 / RFU, TAMM41 / Fold change vs veh, TAMM41 / RFU, KIAA1704 /// LOC100996395 / Fold change vs veh, KIAA1704 /// LOC100996395 / RFU, ING1 / Fold change vs veh, ING1 / RFU, TRMT61B / Fold change vs veh, TRMT61B / RFU, FUBP3 / Fold change vs veh, FUBP3 / RFU, TP53 / Fold change vs veh, TP53 / RFU, TNKS2 / Fold change vs veh, TNKS2 / RFU, ZFP14 / Fold change vs veh, ZFP14 / RFU, ACTR2 / Fold change vs veh, ACTR2 / RFU, PPP3R1 / Fold change vs veh, PPP3R1 / RFU, PIK3R1 / Fold change vs veh, PIK3R1 / RFU, HNRNPA1 / Fold change vs veh, HNRNPA1 / RFU, RNF170 / Fold change vs veh, RNF170 / RFU, ZNF28 / Fold change vs veh, ZNF28 / RFU, RNGTT / Fold change vs veh, RNGTT / RFU, OGT / Fold change vs veh, OGT / RFU, BRD1 / Fold change vs veh, BRD1 / RFU, MARS / Fold change vs veh, MARS / RFU, ZNF655 / Fold change vs veh, ZNF655 / RFU, FAHD1 / Fold change vs veh, FAHD1 / RFU, BDP1 / Fold change vs veh, BDP1 / RFU, LRRCC1 / Fold change vs veh, LRRCC1 / RFU, ARID1A / Fold change vs veh, ARID1A / RFU, ZNF146 / Fold change vs veh, ZNF146 / RFU, ZNF330 / Fold change vs veh, ZNF330 / RFU, GPN3 / Fold change vs veh, GPN3 / RFU, C9orf123 / Fold change vs veh, C9orf123 / RFU, N4BP2L2 / Fold change vs veh, N4BP2L2 / RFU, ARFIP1 / Fold change vs veh, ARFIP1 / RFU, FAM179B / Fold change vs veh, FAM179B / RFU, BCL10 / Fold change vs veh, BCL10 / RFU, UHRF1BP1L / Fold change vs veh, UHRF1BP1L / RFU, BET1 / Fold change vs veh, BET1 / RFU, CNOT2 / Fold change vs veh, CNOT2 / RFU, ZNF268 / Fold change vs veh, ZNF268 / Fold change vs veh, ZNF507 / RFU, DGCR2 / Fold change vs veh, DGCR2 / RFU, WDSUB1 / Fold change vs veh, WDSUB1 / Fold change vs veh, HSP90B1 /// MIR3652 / RFU, ADSS / Fold change vs veh, ADSS / RFU, GK / Fold change vs veh, GK / RFU, ZNF148 / Fold change vs veh, ZNF148 / RFU, TAF9 / Fold change vs veh, TAF9 / RFU, SLC1A5 / Fold change vs veh, SLC1A5 / RFU, SLMO2 / Fold change vs veh, SLMO2 / RFU, ABCC4 / Fold change vs veh, ABCC4 / RFU, LOC101060439 /// RAP1B / Fold change vs veh, LOC101060439 /// RAP1B / RFU, RFX7 / Fold change vs veh, RFX7 / RFU, GTPBP10 / Fold change vs veh, GTPBP10 / RFU, CNEP1R1 / Fold change vs veh, CNEP1R1 / RFU, BIVM-ERCC5 /// ERCC5 / Fold change vs veh, BIVM-ERCC5 /// ERCC5 / RFU, ILF3 / Fold change vs veh, ILF3 / RFU 11762660_at / Fold change /veh 11762660_at / RFU VCAN (11757783_s_at) / Fold change /veh VCAN (11757783_s_at) / RFU DDX43 (11728927_at) / Fold change /veh DDX43 (11728927_at) / RFU KRT8 (11758188_x_at) / Fold change /veh KRT8 (11758188_x_at) / RFU NKD1 (11759106_at) / Fold change /veh NKD1 (11759106_at) / RFU SRD5A1 (11742802_a_at) / Fold change /veh SRD5A1 (11742802_a_at) / RFU TPSAB1 /// TPSB2 (11721975_s_at) / Fold change /veh TPSAB1 /// TPSB2 (11721975_s_at) / RFU GSTM3 (11746129_a_at) / Fold change /veh GSTM3 (11746129_a_at) / RFU IL23R (11737362_x_at) / Fold change /veh IL23R (11737362_x_at) / RFU TMEM51 (11727254_a_at) / Fold change /veh TMEM51 (11727254_a_at) / RFU PIWIL2 (11732686_x_at) / Fold change /veh PIWIL2 (11732686_x_at) / RFU ORM1 (11744905_x_at) / Fold change /veh ORM1 (11744905_x_at) / RFU CCDC152 (11743942_at) / Fold change /veh CCDC152 (11743942_at) / RFU ECM1 (11717891_a_at) / Fold change /veh ECM1 (11717891_a_at) / RFU IL23R (11748794_a_at) / Fold change /veh IL23R (11748794_a_at) / RFU TNFAIP8L3 (11732012_x_at) / Fold change /veh TNFAIP8L3 (11732012_x_at) / RFU MBOAT4 (11741988_at) / Fold change /veh MBOAT4 (11741988_at) / RFU 11764193_at / Fold change /veh 11764193_at / RFU TMEM53 (11763286_at) / Fold change /veh TMEM53 (11763286_at) / RFU MAGEB2 (11727129_at) / Fold change /veh MAGEB2 (11727129_at) / RFU TMEM200A (11744735_a_at) / Fold change /veh TMEM200A (11744735_a_at) / RFU CCDC152 (11751479_a_at) / Fold change /veh CCDC152 (11751479_a_at) / RFU FAM211A (11726209_a_at) / Fold change /veh FAM211A (11726209_a_at) / RFU RGS16 (11746705_a_at) / Fold change /veh RGS16 (11746705_a_at) / RFU VCAN (11755009_s_at) / Fold change /veh VCAN (11755009_s_at) / RFU RHOB (11743442_s_at) / Fold change /veh RHOB (11743442_s_at) / RFU RGS16 (11720943_a_at) / Fold change /veh RGS16 (11720943_a_at) / RFU RGS16 (11720944_at) / Fold change /veh RGS16 (11720944_at) / RFU, VPS4B / Fold change vs veh, VPS4B / RFU, CREB1 / Fold change vs veh, CREB1 / RFU, DNAJC13 / Fold change vs veh, DNAJC13 / RFU, GNAQ / Fold change vs veh, GNAQ / RFU, CDK5R1 / Fold change vs veh, CDK5R1 / RFU, ZRANB3 / Fold change vs veh, ZRANB3 / RFU, CUL4A / Fold change vs veh, CUL4A / RFU, CCNY / Fold change vs veh, CCNY / RFU, UFL1 / Fold change vs veh, UFL1 / RFU, COG3 / Fold change vs veh, COG3 / RFU, DIAPH2 / Fold change vs veh, DIAPH2 / RFU, SKA2 / Fold change vs veh, SKA2 / RFU, AFF3 / Fold change vs veh, AFF3 / RFU, LMF1 / Fold change vs veh, LMF1 / RFU, IPO11 / Fold change vs veh, IPO11 / RFU, DFFB / Fold change vs veh, DFFB / RFU, FOXP1 / Fold change vs veh, FOXP1 / RFU, CARD8 / Fold change vs veh, CARD8 / RFU, STRN3 / Fold change vs veh, STRN3 / RFU, ADK / Fold change vs veh, ADK / RFU, RASSF2 / Fold change vs veh, RASSF2 / RFU, WIPF1 / Fold change vs veh, WIPF1 / RFU, LARP1B / Fold change vs veh, LARP1B / RFU, RASA1 / Fold change vs veh, RASA1 / RFU, RB1 / Fold change vs veh, RB1 / RFU, PPFIA1 / Fold change vs veh, PPFIA1 / RFU, MAT2A / Fold change vs veh, MAT2A / RFU, CCT5 / Fold change vs veh, CCT5 / RFU, WDR92 / Fold change vs veh, WDR92 / RFU, CUX1 / Fold change vs veh, CUX1 / RFU, TTC7A / Fold change vs veh, TTC7A / RFU, TMEM135 / Fold change vs veh, TMEM135 / RFU, DEPTOR / Fold change vs veh, DEPTOR / RFU, CPM / Fold change vs veh, CPM / RFU, DNAJB6 / Fold change vs veh, DNAJB6 / RFU, CACNA2D3 / Fold change vs veh, CACNA2D3 / RFU, DTX4 / Fold change vs veh, DTX4 / RFU, TFCP2 / Fold change vs veh, TFCP2 / RFU, GMCL1 /// GMCL1P1 / Fold change vs veh, GMCL1 /// GMCL1P1 / RFU, AEBP2 / Fold change vs veh, AEBP2 / RFU, SNHG1 /// SNORD22 /// SNORD25 /// SNORD26 /// SNORD27 /// SNORD28 /// SNORD29 /// SNORD31 / Fold change vs veh, SNHG1 /// SNORD22 /// SNORD25 /// SNORD26 /// SNORD27 /// SNORD28 /// SNORD29 /// SNORD31 / Fold change (Aza/veh), C12orf56 (ProbeSet 11735607_a_at) / Fold change (ACY-1035/veh), C12orf56 (ProbeSet 11735607_a_at) / Fold change (Aza/veh), FGFR1OP (ProbeSet 11751329_s_at) / Fold change (ACY-1035/veh), FGFR1OP (ProbeSet 11751329_s_at) / Fold change (Aza/veh), VPS36 (ProbeSet 11739960_a_at) / Fold change (ACY-1035/veh), VPS36 (ProbeSet 11739960_a_at) / RFU SYPL1 (11715823_x_at) / Fold change /veh SYPL1 (11715823_x_at) / RFU IGFBP7 (11715501_s_at) / Fold change /veh IGFBP7 (11715501_s_at) / RFU REEP3 (11722064_at) / Fold change /veh REEP3 (11722064_at) / RFU IGLL1 (11728026_x_at) / Fold change /veh IGLL1 (11728026_x_at): dose or concentration left out as unconfirmed
Conditions: ProbeSet 11753055_s_at; LIST B

Question: With `Nc1ncn([C@@H]2O[C@H](CO)[C@@H](O)[C@H]2O)c(=O)n1` [azacitidine] as the compound, how does the “Fold change vs veh, LOC101060439 /// RAP1B” value read?
Answer: 0.86
